Measurements reported in paper PMC10757563 (Nature chemical biology, 2023).

Test system: ribosome
Test: Toeprinting analysis of ribosome arrest during in vitro translation
Format: biochemical
Conditions: model yrbA-fs15 ORF with UAG stop codon; 50 μM

`C=C[C@]1(C)C[C@@H](OC(=O)CS[C@@H]2C[C@H]3CC[C@@H](C2)N3C)[C@]2(C)[C@H](C)CC[C@]3(CCC(=O)[C@H]32)[C@@H](C)[C@@H]1O` [retapamulin] was tested, and the “ribosome arrest site (toeprint)” value was “ribosomes arrested at the start codon”.
